{
  "source": "patent US9938258B2",
  "about": "(Karyopharm Therapeutics Inc., priority 2012, dated 2018)",
  "key": {"HL-60 cells": {"tested_on": "HL-60 cells", "assay": "MTT cell proliferation assay, HL-60", "assay_type": "cell-based", "settings": "Homo sapiens, incubation approximately 64-72 hours", "description": "(§1) The MTT cell proliferation assay was used to study the cytotoxic properties of the compounds. The assay was performed according to the method described by Roche Molecular Biochemicals, with minor modifications. The assay is based on the cleavage of the tetrazolium salt, MTT, in the presence of an electron-coupling reagent. The water-insoluble formazan salt produced must be solubilized in an additional step. Cells grown in a 96-well tissue culture plate were incubated with the MTT solution for approximately 4 hours. After this incubation period, a water-insoluble formazan dye formed. After solubilization, the formazan dye was quantitated using a scanning multi-well spectrophotometer (ELISA reader). […] The cells were seeded at 5,000-10,000 cells in each well of 96-well plate in 100 μL of fresh culture medium and were allowed to attach overnight. The stock solutions of the compounds were diluted in 100 μL cell culture medium to obtain eight concentrations of each test compound, ranging from 1 nM to 30 μM. […] All optical densities were measured at 490 nm using a Vmax Kinetic Microplate Reader (Molecular Devices). In most cases, the assay was performed in duplicate and the results were presented as a mean percent inhibition to the negative control±SE. The following formula was used to calculate the percent of inhibition: Inhibition (%)=(1-(ODo/OD)) ×100. […]"}, "Daudi cell line": {"tested_on": "Daudi cell line", "assay": "MTT cell proliferation assay, Daudi", "assay_type": "cell-based", "settings": "Homo sapiens, incubation approximately 64-72 hours", "description": "as §1"}, "MDA-MB-231 cell line": {"tested_on": "MDA-MB-231 cell line", "assay": "MTT cell proliferation assay, MDA-MB-231", "assay_type": "cell-based", "settings": "Homo sapiens, incubation approximately 64-72 hours", "description": "as §1"}, "HCT-15 cell line": {"tested_on": "HCT-15 cell line", "assay": "MTT cell proliferation assay, HCT-15", "assay_type": "cell-based", "settings": "Homo sapiens, incubation approximately 64-72 hours", "description": "as §1"}, "THP1 cell line": {"tested_on": "THP1 cell line", "assay": "MTT cell proliferation assay, THP1", "assay_type": "cell-based", "settings": "Homo sapiens, THP-1, incubation approximately 64-72 hours", "description": "as §1"}, "MOLT4 cell line": {"tested_on": "MOLT4 cell line", "assay": "MTT cell proliferation assay, MOLT4", "assay_type": "cell-based", "settings": "Homo sapiens, MOLT-4, incubation approximately 64-72 hours", "description": "as §1"}, "L3.6pl cell line": {"tested_on": "L3.6pl cell line", "assay": "MTT cell proliferation assay, L3.6pl", "assay_type": "cell-based", "settings": "Homo sapiens, incubation approximately 64-72 hours", "description": "as §1"}, "Z138 cells": {"tested_on": "Z138 cells", "assay": "MTT cell proliferation assay, Z138", "assay_type": "cell-based", "settings": "Homo sapiens, Z-138, Z138 cells, approximately 64-72 hours incubation; read-out: MTT Assay IC50, Z138", "how_it_was_run": "(§2)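 Cells plated at 5,000-10,000/well and attached overnight, then treated with eight compound concentrations from 1 nM to 30 μM. MTT added ~4 h, formazan solubilised and read at 490 nm. Percent inhibition versus negative control = (1-(ODo/OD))×100, mostly in duplicate, mean ± SE.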"}, "A549 cells": {"tested_on": "A549 cells", "assay": "MTT cell proliferation assay, A549", "assay_type": "cell-based", "settings": "Homo sapiens, incubation approximately 64-72 hours", "description": "as §1"}, "Hep G2 cells": {"tested_on": "Hep G2 cells", "assay": "MTT cell proliferation assay, Hep G2", "assay_type": "cell-based", "settings": "Homo sapiens, HepG2, incubation approximately 64-72 hours", "description": "(§3) The MTT cell proliferation assay was used to study the cytotoxic properties of the compounds. The assay was performed according to the method described by Roche Molecular Biochemicals, with minor modifications. The assay is based on the cleavage of the tetrazolium salt, MTT, in the presence of an electron-coupling reagent. The water-insoluble formazan salt produced must be solubilized in an additional step. Cells grown in a 96-well tissue culture plate were incubated with the MTT solution for approximately 4 hours. After this incubation period, a water-insoluble formazan dye formed. After solubilization, the formazan dye was quantitated using a scanning multi-well spectrophotometer (ELISA reader). […] The cells were seeded at 5,000-10,000 cells in each well of 96-well plate in 100 μL of fresh culture medium and were allowed to attach overnight. The stock solutions of the compounds were diluted in 100 μL cell culture medium to obtain eight concentrations of each test compound, ranging from 1 nM to 30 μM. […] All optical densities were measured at 490 nm using a Vmax Kinetic Microplate Reader (Molecular Devices). In most cases, the assay was performed in duplicate and the results were presented as a mean percent inhibition to the negative control±SE. The following formula was used to calculate the percent of inhibition: Inhibition (%)=(1-(ODo/OD)) ×100.\nThe M24 cell line is derived from human melanoma cells. The U2OS cell line is a human osteosarcoma cell line expressing wild type p53 and Rb, but lacking p16. The MM1S cell line is a multiple myeloma cell line; the parent cell line, MM.1, was established from peripheral blood of a multiple myeloma patient who had become resistant to steroid-based therapy. The RPMI8226 cell line is derived from human B lymphocyte cells. NHDF cells are normal human dermal fibroblast cells. The MRC-5 cell line is derived from normal lung tissue of a fetus. The LN18 cell line is a human malignant glioma cell line. The DU-145 cell line is a human prostate cancer cell line. A549 cells are human adenocarcinomic human alveolar basal epithelial cells. The MOLT4 cell line is a human acute lymphoblastic leukemia cell line. The THP1 cell line is a human leukemic monocytic cell line derived from peripheral blood. The OCIAML5 cell line is a human acute myeloid leukemia cell line. The MDA-MB-231 cell line is a human breast adenocarcinoma cell line. The MDA-MB-468 cell line is a human breast carcinoma cell line. HL-60 cells are human promyelocytic leukemia cells. Hep G2 cells are human hepatocellular carcinoma cells. HEP 3B cells are human hepatocellular carcinoma cells. The DLD-1 cell line is a colorectal adenocarcinoma cell line. The HCT-15 cell line is a human colon carcinoma cell line. The Colo-205 cell line is derived from a human adenocarcinoma of the colon. […]"}, "MS751 cells": {"tested_on": "MS751 cells", "assay": "MTT cell proliferation assay, MS751", "assay_type": "cell-based, human", "settings": "Homo sapiens, MS751, MS751 cells, approximately 64-72 hours incubation; read-out: MTT Assay IC50, MS751", "how_it_was_run": "as §2"}, "3T3 cells": {"tested_on": "3T3 cells", "assay": "MTT cell proliferation assay, 3T3", "assay_type": "cell-based, mouse", "settings": "Mus musculus, NIH3T3, 3T3 cells, approximately 64-72 hours incubation; read-out: MTT Assay IC50, 3T3", "how_it_was_run": "as §2"}, "LN18 cell line": {"tested_on": "LN18 cell line", "assay": "MTT cell proliferation assay, LN18", "assay_type": "cell-based", "settings": "Homo sapiens, LN-18, incubation approximately 64-72 hours", "description": "as §1"}, "OCIAML5 cell line": {"tested_on": "OCIAML5 cell line", "assay": "MTT cell proliferation assay, OCIAML5", "assay_type": "cell-based", "settings": "Homo sapiens, OCI-AML-5, incubation approximately 64-72 hours", "description": "as §1"}, "MM1S cell line": {"tested_on": "MM1S cell line", "assay": "MTT cell proliferation assay, MM1S", "assay_type": "cell-based", "settings": "Homo sapiens, MM1.S, incubation approximately 64-72 hours", "description": "as §3\nThe M24 cell line is derived from human melanoma cells. The U2OS cell line is a human osteosarcoma cell line expressing wild type p53 and Rb, but lacking p16. The MM1S cell line is a multiple myeloma cell line; the parent cell line, MM.1, was established from peripheral blood of a multiple myeloma patient who had become resistant to steroid-based therapy. The RPMI8226 cell line is derived from human B lymphocyte cells. NHDF cells are normal human dermal fibroblast cells. The MRC-5 cell line is derived from normal lung tissue of a fetus. The LN18 cell line is a human malignant glioma cell line. The DU-145 cell line is a human prostate cancer cell line. A549 cells are human adenocarcinomic human alveolar basal epithelial cells. […]"}},
  "data": [
    {"molecule": "Nc1ccc(/C=C/C(=O)NCC2Cc3cc(-c4ccc(C(=O)N5CCOCC5)cc4)cc(Cl)c3O2)cn1", "note": "(stereo not drawn) [Compound 302, (E)-3-(6-Aminopyridin-3-yl)-N-((7-chloro-5-(4-(morpholine-4-carbonyl)phenyl)-2,3-dihydrobenzofuran-2-yl)methyl)acrylamide]", "values": [
      {"measurement": "IC50", "setting": "HL-60 cells", "result": "0.1 to 5", "unit": "µM"},
      {"measurement": "IC50", "setting": "Daudi cell line", "result": "< 0.1", "unit": "µM"},
      {"measurement": "IC50", "setting": "MDA-MB-231 cell line", "result": "0.1 to 5", "unit": "µM"},
      {"measurement": "IC50", "setting": "HCT-15 cell line", "result": "< 0.1", "unit": "µM"},
      {"measurement": "IC50", "setting": "THP1 cell line", "result": "0.1 to 5", "unit": "µM"},
      {"measurement": "IC50", "setting": "MOLT4 cell line", "result": "< 0.1", "unit": "µM"},
      {"measurement": "IC50", "setting": "L3.6pl cell line", "result": "0.1 to 5", "unit": "µM"},
      {"measurement": "IC50", "setting": "Z138 cells", "result": "< 0.1", "unit": "µM"},
      {"measurement": "IC50", "setting": "A549 cells", "result": "0.1 to 5", "unit": "µM"},
      {"measurement": "IC50", "setting": "Hep G2 cells", "result": "< 0.1", "unit": "µM"},
      {"measurement": "IC50", "setting": "MS751 cells", "result": "< 0.1", "unit": "µM"},
      {"measurement": "IC50", "setting": "3T3 cells", "result": "0.1 to 5", "unit": "µM"},
      {"measurement": "IC50", "setting": "LN18 cell line", "result": "0.1 to 5", "unit": "µM"},
      {"measurement": "IC50", "setting": "OCIAML5 cell line", "result": "< 0.1", "unit": "µM"},
      {"measurement": "IC50", "setting": "MM1S cell line", "result": "< 0.1", "unit": "µM"}
    ]}
  ]
}
